{"source": "patent US20110224245A1", "about": "“Treatment Of Neurological Disorders Using Huperzine” (President and Fellows of Harvard College, priority 2008, published 2011)", "assay_type_in_all_cases": "in vivo", "key": {"[1]": {"tested_on": "formalin-induced paw-licking", "test": "Formalin test (paw licking) in mice", "method": "The formalin test for antinociceptive activity is described in numerous publications, e.g., Hunskaar, S., O. B. Fasmer, and K. Hole, J. Neurosci. […] The formalin test is accepted as an art recognized model of persistent clinical pain.\nMale Swiss Webster NIH mice (20-30 g; Harlan, San Diego, Calif.) were used in the experiments described herein. Food was withdrawn on the day of experiment. Mice were placed in Plexiglass jars for at least 1 hour to accommodate to the environment. Following the accommodation period, mice were weighed and given either a huperzine compound administered intraperitoneal (i.p.) or oral (p.o.), or the appropriate volume of vehicle (10% Tween-80). Fifteen minutes after the i.p. dosing, and 30 minutes after the p.o. dosing mice were injected with formalin (20 μL of 5% formaldehyde solution in saline) into the dorsal surface of the right hind paw. Mice were transferred to the Plexiglass jars and monitored for the amount of time spent licking or biting the injected paw. Periods of licking and biting were recorded in 5 minute intervals for 40 minutes after the formalin injection. All experiments were done in a blinded manner. The early phase (acute) of the formalin response is measured as licking/biting between 0-5 minutes, and the late phase (inflammatory) is measured from 10-40 minutes. Differences between vehicle and drug treated groups are analyzed by one-way analysis of variance (ANOVA). A P value<0.05 is considered significant.\nFifteen minutes after the i.p. dosing, mice were injected with formalin (20 μL of 5% formaldehyde solution in saline) into the dorsal surface of the right hind paw. Periods of licking and biting were recorded in 5 minute intervals for 40 minutes after the formalin injection as shown below in Tables 1 and 2. All experiments were done according to the art-recognized Anticonvulsant Screening Program of the NINDS at the University of Utah.\nDuration of paw licking in the tables below is expressed in seconds."}, "[2]": {"tested_on": "6 Hz seizures", "test": "6 Hz anticonvulsant evaluation in mice, ICV administration", "text": "Huperzine delivered directly to the central nervous system (e.g., cerebral ventricles, intrathecal space), via direct injection and/or through an apparatus such as a pump or material containing Huperzine, bypasses the systemic effect by minimizing bioavailability of Huperzine in the rest of the body, and potently prevents and treats seizure, pain and/or other neurological conditions.\nResults after direct administration to neural tissue using an art-recognized 6-HZ animal model are shown below.\n(§1) Doses listed as pmol/5 microliter injection volume for ICV. TD50 at 0.5 hrs: 36.15 (9.35-121.74) 1.57+/−0.51.\nMale, 18-25 g CF1 mice and 100-125 g Sprague-Dawley rats (Charles River Laboratories, Wilmington, Mass.) were used as the experimental animals. Animals were pretreated intraperitoneally (i.p.) with increasing doses of HupA and tested at various times after administration for protection against tonic extension (MES test), minimal clonic (s.c. PTZ test), limbic (6 Hz), or secondarily generalized (kindled rat) seizures. Seizure testing was carried out as follows. For the MES and 6 Hz tests, a drop of anesthetic/electrolyte solution (0.5% tetracaine hydrochloride in 0.9% saline) was applied to the eyes of each animal prior to placement of the corneal electrodes. The electrical stimulus in the MES test was 50 mA, 60 Hz, for mice and 150 mA, 60 Hz, for rats, delivered for 0.2 sec (White et al., 2002, In R. H. Levy et al., eds. Antiepileptic Drugs, 5th edition, p. 36-48, Philadelphia: Lippincott Williams & Wilkins). The ability of the test substance to prevent seizures induced by 6 Hz corneal stimulation (32 mA, 3 sec duration) was assessed at various times after i.p. administration of 1 mg/kg HupA For assessment of hippocampal kindling, HupA (1 mg/kg, i.p.) was administered. The ability of the compound to block the expression of hippocampal kindled seizures was evaluated using the rapid hippocampal kindling model (White et al., 2002). Animals not displaying secondarily generalize seizures were considered protected."}, "[3]": {"tested_on": "maximal electroshock seizure (MES)", "test": "Maximal Electroshock (MES) model, mice i.p.", "conditions": "1 mg/kg", "method": "Huperzine A was evaluated in the Maximal Electroshock (MES) and Subcutaneous Metrazol (pentylenetetrazol; SCMET) models of generalized tonic-clonic and myoclonic seizures, respectively in mice and rats.\nThe maximal electroshock (MES) model is an art recognized test, useful to investigate the efficacy of therapeutic agents against grand mal seizures. Maximal seizures were induced by the application of electrical current to the brain via corneal electrodes. The stimulus parameters for mice were 50 mA in a pulse of 60 Hz for 200 ms. The animals were given the huperzine dissolved in methyl cellulose and spasm inhibition was recorded as a measure of anticonvulsant activity.\nHuperzine A was either administered in a soluble form (SOL) or as a suspension (SUS). […]\nMale, 18-25 g CF1 mice and 100-125 g Sprague-Dawley rats (Charles River Laboratories, Wilmington, Mass.) were used as the experimental animals. […] The ability of the test substance to prevent seizures induced by 6 Hz corneal stimulation (32 mA, 3 sec duration) was assessed at various times after i.p. administration of 1 mg/kg HupA For assessment of hippocampal kindling, HupA (1 mg/kg, i.p.) was administered. The ability of the compound to block the expression of hippocampal kindled seizures was evaluated using the rapid hippocampal kindling model (White et al., 2002). […]"}, "[4]": {"tested_on": "mice", "test": "Toxicity / minimal motor impairment after ICV administration (6 Hz screen)", "conditions": "for Toxic (animals toxic over number tested): 0.5 h", "text": "as §1\nMinimal toxicity was identified in mice by the rotorod procedure."}}}
{"smiles": "C/C=C1\\[C@H]2C=C(C)C[C@]1(N)c1ccc(=O)[nH]c1C2", "note": "[Huperzine A]", "values": [{"measurement": "Area Under the Curve, % of Control", "setting": "[1]; 0.5 mg/kg i.p., Acute phase", "value": 2.8, "unit": "%"}, {"measurement": "Area Under the Curve, % of Control", "setting": "[1]; 0.5 mg/kg i.p., Inflammatory phase", "value": 0.0, "unit": "%"}, {"measurement": "inhibition of phase 1 (acute) pain response", "setting": "[1]; 1 mg/kg i.p.", "value": "complete inhibition"}, {"measurement": "inhibition of phase 2 (inflammatory) pain response", "setting": "[1]; 1 mg/kg i.p.", "value": "complete inhibition"}, {"measurement": "Area Under the Curve, % of Control", "setting": "[1]; 1 mg/kg i.p., Acute phase", "value": 0.0, "unit": "%"}, {"measurement": "Area Under the Curve, % of Control", "setting": "[1]; 1 mg/kg i.p., Inflammatory phase", "value": 0.0, "unit": "%"}, {"measurement": "ED50", "setting": "[2]; 6 HZ, ICV, 32 mA, 0.5 h", "value": "0.21 pmol/5 microliter injection volume"}, {"measurement": "N/F (animals active over number tested)", "setting": "[2]; ICV, 32 mA, 0.5 h, dose 0.01 (pmol/5 microliter; head prints mg/kg)", "value": "3/8"}, {"measurement": "N/F (animals active over number tested)", "setting": "[2]; ICV, 32 mA, 0.5 h, dose 1 (pmol/5 microliter; head prints mg/kg)", "value": "5/8"}, {"measurement": "N/F (animals active over number tested)", "setting": "[2]; ICV, 32 mA, 0.5 h, dose 10 (pmol/5 microliter; head prints mg/kg)", "value": "6/8"}, {"measurement": "N/F (animals active over number tested)", "setting": "[2]; ICV, 32 mA, 0.5 h, dose 100 (pmol/5 microliter; head prints mg/kg)", "value": "8/8"}, {"measurement": "N/F (animals active over number tested)", "setting": "[2]; ICV, 32 mA, 0.5 h, dose 1000 (pmol/5 microliter; head prints mg/kg)", "value": "4/4"}, {"measurement": "Time to Peak Effect N/F", "setting": "[2]; ICV, 32 mA, dose 10 (pmol/5 microliter), 0.25 h", "value": "2/4"}, {"measurement": "Time to Peak Effect N/F", "setting": "[2]; ICV, 32 mA, dose 10 (pmol/5 microliter), 0.5 h", "value": "3/4"}, {"measurement": "Time to Peak Effect N/F", "setting": "[2]; ICV, 32 mA, dose 100 (pmol/5 microliter), 0.25 h", "value": "4/4"}, {"measurement": "Time to Peak Effect N/F", "setting": "[2]; ICV, 32 mA, dose 100 (pmol/5 microliter), 0.5 h", "value": "3/4"}, {"measurement": "Time to Peak Effect N/F", "setting": "[2]; ICV, 32 mA, dose 100 (pmol/5 microliter), 1.0 h", "value": "1/4"}, {"measurement": "ICV ED50 dose", "setting": "[2]; mouse 6-hz model, ICV", "value": 52, "unit": "pgrams"}, {"measurement": "maximum concentration in the cerebral ventricles after the ICV ED50 dose", "setting": "[2]; mouse 6-hz model, ICV ED50 dose, 40 μL", "value": "approximately 1.3 pgram/μL"}, {"measurement": "protection in the mouse MES test (FIG. 1)", "setting": "[3]", "value": "time-dependent protection"}, {"measurement": "body temperature", "setting": "[4]", "value": "Dose-dependent drop in body temperatures"}, {"measurement": "Toxic (animals toxic over number tested)", "setting": "[4]; dose 0.01 (pmol/5 microliter; head mg/kg)", "value": "0/8 Toxic"}, {"measurement": "Toxic (animals toxic over number tested)", "setting": "[4]; dose 1 (pmol/5 microliter; head mg/kg)", "value": "0/8 Toxic"}, {"measurement": "Toxic (animals toxic over number tested)", "setting": "[4]; dose 10 (pmol/5 microliter; head mg/kg)", "value": "2/8 toxic"}, {"measurement": "Toxic (animals toxic over number tested)", "setting": "[4]; dose 100 (pmol/5 microliter; head mg/kg)", "value": "6/8 Toxic"}, {"measurement": "Toxic (animals toxic over number tested)", "setting": "[4]; dose 1000 (pmol/5 microliter; head mg/kg)", "value": "4/4 toxic"}, {"measurement": "TD50", "setting": "[4]; 0.5 hrs, (95% interval in brackets)", "value": "36.15 (9.35-121.74) pmol/5 microliter injection volume"}, {"measurement": "Response comment", "setting": "[4]; dose 10, 0.25 h", "value": "Minimal motor impairment"}, {"measurement": "Response comment", "setting": "[4]; dose 10, 0.5 h", "value": "Minimal motor impairment"}, {"measurement": "Response comment", "setting": "[4]; dose 100, 0.25 h", "value": "Minimal motor impairment"}, {"measurement": "Response comment", "setting": "[4]; dose 100, 0.5 h", "value": "Minimal motor impairment"}, {"measurement": "Response comment", "setting": "[4]; dose 100, 1 h", "value": "Minimal motor impairment"}]}
